Measured values: ChEMBL document CHEMBL3045014, “Synthesis and biological activity of novel anti-juvenile hormone agents” (J Pestic Sci, 2008)
The source made the active and inactive calls. No cut-off for these calls is given here.

Legend:
Format in all cases: functional, organism-based
Bombyx mori [1] = experiment: Induction of precocious metamorphosis in fourth-instar larvae of Bombyx mori at 10 ug
Bombyx mori [2] = experiment: Induction of precocious metamorphosis in fourth-instar larvae of Bombyx mori at 0.1 ug
Bombyx mori [3] = experiment: Induction of precocious metamorphosis in newly-molted fourth-instar larvae of Bombyx mori at 1 ug
Bombyx mori [4] = experiment: Induction of precocious metamorphosis in fourth-instar larvae of Bombyx mori at 40 ug
Bombyx mori [5] = experiment: Induction of precocious metamorphosis in Bombyx mori
Bombyx mori [6] = experiment: Induction of precocious metamorphosis in fourth-instar larvae of Bombyx mori in presence of 20-hydroxyecdysone
Bombyx mori [7] = experiment: Induction of precocious metamorphosis in fourth-instar larvae of Bombyx mori in presence of JH agonist methoprene
Bombyx mori [8] = experiment: Induction of precocious metamorphosis in newly-molted fourth-instar larvae of Bombyx mori
Bombyx mori [9] = experiment: Induction of precocious metamorphosis in fourth-instar larvae of Bombyx mori
Bombyx mori [10] = experiment: Induction of precocious metamorphosis in 24-hr old 3rd-instar larvae of Bombyx mori

CCCC[C@@H](COc1ccc(C(=O)OCC)cc1)Cc1ccccc1
Activity (Bombyx mori [1]): inactive
Activity (Bombyx mori [2]): Active
Activity (Bombyx mori [3]): Active
Activity (Bombyx mori [4]): inactive

CCOC(=O)c1ccc(OCC(CC)Oc2ccc(C)nc2)cc1 (stereo not given)
Activity (Bombyx mori [5]): Active

CCOC(=O)c1ccc(OCC(Oc2ccc(C)nc2)C(C)(C)C)cc1 (stereo not given)
Activity (Bombyx mori [5]): Active

CCCCC(COc1ccc(C(=O)OCC)cc1)Cc1ccccc1 (racemic)
Activity (Bombyx mori [6]): Active
Activity (Bombyx mori [7]): inactive
Activity (Bombyx mori [3]): Active
Activity (Bombyx mori [8]): Dose-dependent effect
Activity (Bombyx mori [9]): Active
Activity (Bombyx mori [10]): inactive
Activity (Bombyx mori [5]): Active

CCCCC(COc1ccc(C(=O)OCC)cc1)Oc1ccccc1 (stereo not given)
Activity (Bombyx mori [8]): Active
Activity (Bombyx mori [5]): Active

CCOC(=O)c1ccc(OCC(CC)OC(=O)C(C)(C)C)cc1 (stereo not given)
Activity (Bombyx mori [8]): inactive
Activity (Bombyx mori [9]): Active
Activity (Bombyx mori [10]): inactive

CCCCC(COc1ccc(C(=O)OCC)cc1)Oc1ccc(C)nc1 (stereo not given)
Activity (Bombyx mori [8]): Active
Activity (Bombyx mori [5]): Active

CCCCCC(COc1ccc(C(=O)OCC)cc1)Cc1ccccc1 (stereo not given)
Activity (Bombyx mori [5]): Active

CCCC[C@H](COc1ccc(C(=O)OCC)cc1)Cc1ccccc1
Activity (Bombyx mori [1]): inactive
Activity (Bombyx mori [2]): Active
Activity (Bombyx mori [3]): Active
Activity (Bombyx mori [4]): inactive
